These results are taken from patent publication US20220402925A1, “COMPOUNDS AND METHODS FOR THE TREATMENT OF CYSTIC FIBROSIS” (Flatley Discovery Lab, LLC, priority 2019, published 2022).

The structures appear in SMILES notation.

The assay deals with T1, F508del CFTR (Homo sapiens, UniProt P13569, DEL508-508).
T1 construct: Primary CF airway epithelial cells were obtained from the UNC Cystic Fibrosis Tissue Procurement and Cell Culture Core; host or cells: primary CF airway epithelial cells
T1 sequence (P13569 with tags, fused parts or gaps DEL508-508): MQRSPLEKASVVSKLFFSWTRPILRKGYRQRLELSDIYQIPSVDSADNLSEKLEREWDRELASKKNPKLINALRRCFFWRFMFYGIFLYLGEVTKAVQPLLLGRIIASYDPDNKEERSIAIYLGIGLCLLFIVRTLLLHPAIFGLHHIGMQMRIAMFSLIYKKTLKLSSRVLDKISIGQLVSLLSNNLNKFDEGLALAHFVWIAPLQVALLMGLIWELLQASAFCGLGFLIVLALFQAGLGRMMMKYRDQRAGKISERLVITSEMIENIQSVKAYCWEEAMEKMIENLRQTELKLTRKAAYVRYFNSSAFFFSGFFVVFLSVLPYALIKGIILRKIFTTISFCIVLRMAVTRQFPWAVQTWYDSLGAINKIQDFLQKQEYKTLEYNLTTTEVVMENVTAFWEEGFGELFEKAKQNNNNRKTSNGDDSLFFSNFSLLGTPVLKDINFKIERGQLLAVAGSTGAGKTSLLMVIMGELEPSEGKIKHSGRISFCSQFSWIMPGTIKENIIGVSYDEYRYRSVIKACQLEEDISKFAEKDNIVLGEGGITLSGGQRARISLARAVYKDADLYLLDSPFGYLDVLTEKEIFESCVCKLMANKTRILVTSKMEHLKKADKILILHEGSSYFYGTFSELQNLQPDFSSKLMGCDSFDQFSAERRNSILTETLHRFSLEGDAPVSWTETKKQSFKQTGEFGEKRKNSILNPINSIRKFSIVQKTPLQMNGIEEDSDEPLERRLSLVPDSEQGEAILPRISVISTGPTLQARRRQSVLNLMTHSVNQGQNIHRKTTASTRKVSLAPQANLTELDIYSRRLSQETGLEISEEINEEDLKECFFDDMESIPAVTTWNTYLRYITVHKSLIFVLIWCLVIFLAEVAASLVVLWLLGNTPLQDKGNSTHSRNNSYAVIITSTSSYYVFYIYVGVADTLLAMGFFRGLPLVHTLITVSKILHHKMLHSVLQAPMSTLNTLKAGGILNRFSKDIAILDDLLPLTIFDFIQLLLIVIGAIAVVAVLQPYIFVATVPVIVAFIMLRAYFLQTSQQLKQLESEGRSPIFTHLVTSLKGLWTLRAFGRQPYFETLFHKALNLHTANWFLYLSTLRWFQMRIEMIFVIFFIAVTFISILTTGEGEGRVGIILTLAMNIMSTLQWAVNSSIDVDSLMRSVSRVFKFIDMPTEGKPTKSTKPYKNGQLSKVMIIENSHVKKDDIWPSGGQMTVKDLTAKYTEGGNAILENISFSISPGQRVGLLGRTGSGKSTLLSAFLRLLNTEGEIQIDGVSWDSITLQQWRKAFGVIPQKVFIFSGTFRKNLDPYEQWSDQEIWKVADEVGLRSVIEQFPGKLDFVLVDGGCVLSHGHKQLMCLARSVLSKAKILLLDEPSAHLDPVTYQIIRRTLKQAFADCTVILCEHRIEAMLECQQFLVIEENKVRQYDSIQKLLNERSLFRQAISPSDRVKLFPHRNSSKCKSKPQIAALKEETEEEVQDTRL
The experiment in a line: Equivalent current assay in primary CF airway epithelial cells (Corrector Activity, NAUC normalized to 3 μM VX809). Type of assay: cell-based. Conditions: NAUC as % of positive control (VX-809). On the procedure:
Primary CF airway epithelial cells were obtained from the UNC Cystic Fibrosis Tissue Procurement and Cell Culture Core. The cells are grown at 37° C. in a Heracell 150i incubator using growth media (BEGM, Fischer). Cells were then transferred to differentiation media (airway liquid interface media (ALI) media; Lechner J F and LaVeck M A, J. Tissue Culture Methods 1985, 9: 43-48) for a minimum of 4 weeks on coated Costar transwells. Two days before the assay the mucus on the apical surface of the cells was aspirated after incubating with 200 μL of differentiation media for at least thirty (30) minutes. One day before the assay test compounds were added to the basolateral surface of the cells at various test concentrations dissolved in DMSO. Duplicate wells were prepared giving a n=4 or n=6 protocol.
Cells were treated for 24 hours with various combinations and concentrations of the test articles, reference standard (3 μM VX809, positive control). Compounds stock solutions were prepared in DMSO and diluted 1/1000 into ALI media to their final assay concentration. Cells were treated with combination solutions (2 mL of each dilution) and incubated at 37° C. for 24 h.
For the equivalent current assay, cells on six Transwell (24-well) plates were treated. Each Transwell plate was filled with 200 μl of HBS on the apical surface and 2 ml on the basolateral surface. Plates were placed horizontally in a heated mount at 37° C. and equilibrated for 30 minutes. Resting current was measured for 15 min and then blocked by the apical addition of 5 μM benzamil. After 20 min, CFTR activator (10 μM forskolin) and potentiator (either 1 μM VX-770 or 3 μM FDL176) were added to both the apical and basolateral side to stimulate CFTR. An increase in chloride current is seen as an upward deflection of the trace. After another 60 min, CFTR-172 (a CFTR inhibitor, 20 μM) and/or bumetanide (20 uM) was added to block CFTR mediated chloride current.
The raw data, voltage vs. time and resistance vs. time for the equivalent current assay (sampling interval: 6 minutes) were transferred to Excel (Microsoft Office Professional, version 14.0.7106.5003) for analysis. CFTR specific current was computed from I=V/R (Ohms Law), the average amplitude of the increase in current elicited upon addition forskolin and ending upon addition of the CFTR channel specific blocker CFTR-172. This average is equivalent to the sum of the average forskolin activated and the average VX770-potentiated currents. The average current measured in vehicle (0.1% DMSO) treated cells, IV, was subtracted from the current for the test article, ITA, or from the corrector reference standard VX809 (3 uM, ISTD). For replicate measurements, the averaged vehicle subtracted response for the test article, was normalized to the averaged vehicle subtracted response of the reference corrector VX809 (3 μM).
INSC=(ITA−IV)(ave)/(ISTD−IV)(ave) (Equation 1)
A second endpoint, for the equivalent current assay, evaluated was NAUC, the normalized area under the curve (AUC) measuring the response after addition of forskolin and potentiator to the time point right before the addition of the CFTR inhibitor. The AUC is effectively the average response multiplied by the duration of the response. The AUC of the test article, AUCTA was then corrected by subtracting the average vehicle response, AUCV,ave over the same time range, and normalized as for the inhibitor-sensitive current to the difference of the corrector reference standard VX809 (3 μM VX809r,ave and the vehicle response:
NAUCTA=[AUCTA−AUCV,ave]/[AUCVx809r,ave−AUCV,ave] (Equation 2).
The normalized value for DMSO is 0.0 and for VX-809 alone is 1.0 for both of these equations.
Experiments were run with a minimum of n=4 replicates per concentration. Since the distribution for the ratio of two normal distributions is a Cauchy distribution, the median value must be used for the average and the average deviation must be used for the error of all normalized data. […]
As for `Cc1cc2c(=O)n(CC(=O)N(C)c3ccc4c(c3)OC(F)(F)O4)nc(-c3cc(F)cc(F)c3)c2o1` [Example 71], the “Corr Activity (NAUC)” value is “+++ (NAUC>70% of positive control)”.
With `Cc1cc2c(=O)n(CC(=O)N(C)c3ccc4c(c3)OC(F)(F)O4)nc(-c3cc(Cl)cc(C#N)c3)c2o1` [Example 72] the entry was “+++ (NAUC>70% of positive control)”; with `CCN(C(=O)Cn1nc(-c2cc(Cl)cc(Cl)c2)c2oc(C)cc2c1=O)c1ccc2c(c1)OC(F)(F)O2` [Example 73], “+++ (NAUC>70% of positive control)”.
With `CCN(C(=O)Cn1nc(-c2cc(F)cc(F)c2)c2oc(C)cc2c1=O)c1ccc2c(c1)OC(F)(F)O2` [Example 74] the entry was “+++ (NAUC>70% of positive control)”.
With `CCN(C(=O)Cn1nc(-c2cc(F)cc(Cl)c2)c2oc(C)cc2c1=O)c1ccc2c(c1)OC(F)(F)O2` [Example 75] the entry was “+++ (NAUC>70% of positive control)”; with `CCN(C(=O)Cn1nc(-c2cc(F)cc(C#N)c2)c2oc(C)cc2c1=O)c1ccc2c(c1)OC(F)(F)O2` [Example 76], “+++ (NAUC>70% of positive control)”.
In the case of `Cc1cc2c(=O)n(CC(=O)N(c3ccc4c(c3)OC(F)(F)O4)C3CC3)nc(-c3cc(Cl)cc(Cl)c3)c2o1` [Example 77], the “Corr Activity (NAUC)” value was “+++ (NAUC>70% of positive control)”.
With `Cc1cc2c(=O)n(CC(=O)N(c3ccc4c(c3)OC(F)(F)O4)C3CC3)nc(-c3cc(F)cc(F)c3)c2o1` [Example 78] the entry was “+++ (NAUC>70% of positive control)”; with `CCN(C(=O)Cn1nc(-c2cc(C)cc(Cl)c2)c2occc2c1=O)c1ccc2c(c1)OC(F)(F)O2` [Example 79], “+++ (NAUC>70% of positive control)”; with `CCN(C(=O)Cn1nc(-c2cc(C)cc(F)c2)c2occc2c1=O)c1ccc2c(c1)OC(F)(F)O2` [Example 83], “+++ (NAUC>70% of positive control)”.
With `CCN(C(=O)Cn1nc(-c2cc(C)cc(C#N)c2)c2occc2c1=O)c1ccc2c(c1)OC(F)(F)O2` [Example 84] the entry was “+++ (NAUC>70% of positive control)”.
With `Cc1cc(Cl)cc(-c2nn(CC(=O)N(C)c3ccc4c(c3)OC(F)(F)O4)c(=O)c3ccoc23)c1` [Example 85] the entry was “+++ (NAUC>70% of positive control)”.
Regarding `Cc1cc(C#N)cc(-c2nn(CC(=O)N(C)c3ccc4c(c3)OC(F)(F)O4)c(=O)c3ccoc23)c1` [Example 86], the “Corr Activity (NAUC)” value is on record as “+++ (NAUC>70% of positive control)”.
As to `CN(C(=O)Cn1nc(-c2cccc(C(C)(C)C)c2)c2occc2c1=O)c1ccc2c(c1)OC(F)(F)O2` [Example 87], the “Corr Activity (NAUC)” value is “+ (NAUC<40% of positive control)”.
In the case of `CCN(C(=O)Cn1nc(-c2cccc(C(C)(C)C)c2)c2occc2c1=O)c1ccc2c(c1)OC(F)(F)O2` [Example 88], the “Corr Activity (NAUC)” value was “++ (NAUC 70-40% of positive control)”.
With `CCN(C(=O)Cn1nc(-c2cccc(OC(C)(C)C)c2)c2occc2c1=O)c1ccc2c(c1)OC(F)(F)O2` [Example 89] the entry was “++ (NAUC 70-40% of positive control)”; with `CN(C(=O)Cn1nc(-c2cccc(OC(F)(F)F)c2)c2occc2c1=O)c1ccc2c(c1)OC(F)(F)O2` [Example 90], “++ (NAUC 70-40% of positive control)”.
With `CCN(C(=O)Cn1nc(-c2cccc(OC(F)(F)F)c2)c2occc2c1=O)c1ccc2c(c1)OC(F)(F)O2` [Example 91] the entry was “+++ (NAUC>70% of positive control)”; with `Cc1nc2ccc(N(C)C(=O)Cn3nc(-c4cccc(C(C)(C)C)c4)c4occc4c3=O)cc2o1` [Example 92], “+ (NAUC<40% of positive control)”.
With `Cc1nc2ccc(N(C)C(=O)Cn3nc(-c4cccc(OC(F)(F)F)c4)c4occc4c3=O)cc2o1` [Example 93] the entry was “+ (NAUC<40% of positive control)”; with `CCN(C(=O)Cn1nc(-c2cccc(OC(F)(F)F)c2)c2occc2c1=O)c1ccc2nc(C)oc2c1` [Example 94], “++ (NAUC 70-40% of positive control)”.
For `COC(=O)c1ccc(-c2nn(CC(=O)N(C)c3ccc4c(c3)OC(F)(F)O4)c(=O)c3ccoc23)cc1C#N` [Example 95], the “Corr Activity (NAUC)” value was “++ (NAUC 70-40% of positive control)”.
With `CCOC(=O)c1ccc(-c2nn(CC(=O)N(CC)c3ccc4c(c3)OC(F)(F)O4)c(=O)c3ccoc23)cc1C#N` [Example 96] the entry was “+++ (NAUC>70% of positive control)”.
With `CCN(C(=O)Cn1nc(-c2cc(C#N)cc(C(F)(F)F)c2)c2occc2c1=O)c1ccc2c(c1)OC(F)(F)O2` [Example 97] the entry was “+ (NAUC<40% of positive control)”; with `CN(C(=O)Cn1nc(-c2cc(C#N)cc(C(F)(F)F)c2)c2occc2c1=O)c1ccc2c(c1)OC(F)(F)O2` [Example 98], “++ (NAUC 70-40% of positive control)”.
With `CCN(C(=O)Cn1nc(-c2cc(C#N)cc(C(F)F)c2)c2occc2c1=O)c1ccc2c(c1)OC(F)(F)O2` [Example 99] the entry was “+++ (NAUC>70% of positive control)”.
Turning to `CN(C(=O)Cn1nc(-c2cc(C#N)cc(C(F)F)c2)c2occc2c1=O)c1ccc2c(c1F)OC(F)(F)O2` [Example 101], the “Corr Activity (NAUC)” value is “+++ (NAUC>70% of positive control)”.
With `O=C(Cn1nc(-c2cccc(F)c2)c2occc2c1=O)N1CCCc2c1ccc1c2OC(F)(F)O1` [Example 102], the “Corr Activity (NAUC)” value is “++ (NAUC 70-40% of positive control)”.
With `N#Cc1cc(Cl)cc(-c2nn(CC(=O)N3CCCc4c3ccc3c4OC(F)(F)O3)c(=O)c3ccoc23)c1` [Example 103] the entry was “++ (NAUC 70-40% of positive control)”.
With `N#Cc1cc(F)cc(-c2nn(CC(=O)N3CCCc4c3ccc3c4OC(F)(F)O3)c(=O)c3ccoc23)c1` [Example 104] the entry was “+++ (NAUC>70% of positive control)”; with `COc1cc(C#N)cc(-c2nn(CC(=O)N3CCCc4c3ccc3c4OC(F)(F)O3)c(=O)c3ccoc23)c1` [Example 105], “+++ (NAUC>70% of positive control)”; with `CN(C(=O)Cn1nc(-c2cccc(F)c2)c2occc2c1=O)c1ccc2c(c1F)OC(F)(F)O2` [Example 108], “+++ (NAUC>70% of positive control)”.
For the molecule `CCN(C(=O)Cn1nc(-c2cccc(F)c2)c2occc2c1=O)c1ccc2c(c1F)OC(F)(F)O2` [Example 109], the “Corr Activity (NAUC)” value was “+++ (NAUC>70% of positive control)”.
With `CCN(C(=O)Cn1nc(-c2cc(C#N)cc(OC)c2)c2occc2c1=O)c1ccc2c(c1)OC(F)(F)O2` [Example 110] the entry was “+++ (NAUC>70% of positive control)”; with `CCN(C(=O)Cn1nc(-c2cc(C#N)cc(C(C)(C)C)c2)c2occc2c1=O)c1ccc2c(c1)OC(F)(F)O2` [Example 111], “+++ (NAUC>70% of positive control)”.
With `CCN(C(=O)Cn1nc(-c2cc(Cl)cc(OC)c2)c2occc2c1=O)c1ccc2c(c1)OC(F)(F)O2` [Example 112] the entry was “+++ (NAUC>70% of positive control)”; with `CCN(C(=O)Cn1nc(-c2cccc(F)c2)c2oc(C(=O)NC(C)(C)C)cc2c1=O)c1ccc2c(c1)OC(F)(F)O2` [Example 119], “+++ (NAUC>70% of positive control)”.
With `CCN(C(=O)Cn1nc(-c2cccc(Cl)c2)c2oc(C(=O)NC(C)(C)C)cc2c1=O)c1ccc2c(c1)OC(F)(F)O2` [Example 120] the entry was “+++ (NAUC>70% of positive control)”.
Turning to `CCN(C(=O)Cn1nc(-c2cccc(C#N)c2)c2oc(C(=O)NC(C)(C)C)cc2c1=O)c1ccc2c(c1)OC(F)(F)O2` [Example 121], the “Corr Activity (NAUC)” value is “+++ (NAUC>70% of positive control)”.
